According to patent US20240269096A1, “Rapid Onset Therapeutic Ketosis Enabled by D-BetaHydroxyButyric Acid Systems, Compounds and Methods for Sepsis Protection and Enhanced Medical Recovery” (American Ketone Therapeutics LLC, priority 2022, published 2024):
Where “and” joins values, the source holds several entries; their conditions need not be identical. Identical values can stand only once. Blank lines part the entries; values can stand above or below the compound they belong to.

Key:
[1] = Continuous glucose monitoring (Abbot Libre CGM) with carbohydrate challenge; assay type: in vivo; conditions: 10 g administered 45 minutes before 50 g carbohydrate ingestion; versus unsupplemented ingestion
Excerpt: FIG. 11 is a graphical illustration of continuous monitoring of body glucose levels. FIG. 11 depicts continuous glucose monitoring levels with carbohydrate challenge documented by Abbot Libre Continuous Glucose Monitoring (CGM) device. In this illustrative embodiment, glucose levels from a 50 g carbohydrate ingestion are depicted unaided by free D-BetaHydroxyButyric Acid on the left and repeated the following day with two 50 g carbohydrate ingestions accompanied by 10 g free D-BetaHydroxyButyric Acid administered 45 minutes before the carbohydrate insult. […] As free D-BetaHydroxyButyric Acid can lower glucose while rapidly increasing ketone levels, it is believed that obtaining high ketones while lowering glucose will yield additional stroke recovery benefits for high glucose sensitive individuals suffering from sepsis and may be considered in lieu of insulin administration.

[2] = Blood ketone levels by Abbott blood test strip after oral free D-BHB; assay type: in vivo, human
Excerpt: FIG. 9 is a graphical illustration of D-BHB exogenous ketone blood levels. The above Abbot blood ketone meter evidenced by Abbott blood test strip depicts the rapid rise in blood ketone levels from 0.1 mmol/L (absence of ketosis) to 2.7 mmol/L (ketosis) after oral bolus administration of 15 grams of bioidentical free D-BetaHydroxyButyric Acid. The ketone levels depicted are attained in the absence of a salt as well as without ester bonds. It is the free acid D-BHB exogenously administered which is bio-identical to the endogenous D-BHB free acid generated by the human body. The bioidentical ketone body D-BHB is first and foremost an energy source, which is directly and preferentially metabolized by the brain. D-BHB is also active as a signaling mechanism and neuro-inflammation reduction agent, resulting in broad and beneficial brain bioenergy related benefits.
FIG. 10 is a graphical illustration of D-BHB exogenous ketone blood levels. FIG. 10 details rapid ketosis within 45 minutes confirmed by Abbott blood test strip after 10 g D-BHB with palatability agent administered by oral drink. Blood ketone levels document rise from 0.2 mmol/L to 1.8 mmol/L and 0.6 mmol/L to 1.9 mmol/L in a variety of test subjects. FIG. 10 reinforces the fact that supplementation by utilizing free D only BetaHydroxyButyric Acid without ketone salt or ketone ester is a reliable, reproduceable method and system for rapid ketone level increase for stroke recovery and maintenance. While amounts of free D only BetaHydroxyButyric Acid taken for stroke effects may vary, it is an anticipated preferred embodiment that levels between 5 and 30 grams of D only BetaHydroxyButyric Acid are taken as needed for optimum recovery. Alternate embodiments may include lower or higher amounts, however, experimental evidence has confirmed optimal administration in this range for a wide variety of other applications.

[3] = Continuous Ketone Meter (CKM) monitoring of body ketone levels and deep sleep; assay type: in vivo; conditions: 5 grams consumed 45 minutes prior to bedtime
Excerpt: FIG. 12 is a graphical illustration of continuous monitoring of body ketone levels resulting in improved deep sleep time due to enhanced D-BHB levels according to the claimed invention. It is noteworthy that consumption of even small amounts of free D-BetaHydroxyButyric Acid can give rise to therapeutic ketosis levels as measured by Continuous Ketone Meter (CKM). […] While free D-BetaHydroxyButyric Acid is not a sedative, even small amounts can greatly improve deep sleep quantity and quality. It is an intended and foreseeable embodiment application to increase deep sleep with free D-BetaHydroxyButyric Acid with the aim of guarding against sepsis, improving hospital recovery and enhanced resiliency.

[4] = compared with ketone salts; FIG. 5 literature data; cited from earlier work
[5] = target: T1, NLRP3 inflammasome (Homo sapiens, UniProt Q96P20); conditions: independently of GPR109A binding or mitochondrial oxidation; cited from earlier work
T1 construct: host or cells: macrophages
T1 sequence (Q96P20 whole entry): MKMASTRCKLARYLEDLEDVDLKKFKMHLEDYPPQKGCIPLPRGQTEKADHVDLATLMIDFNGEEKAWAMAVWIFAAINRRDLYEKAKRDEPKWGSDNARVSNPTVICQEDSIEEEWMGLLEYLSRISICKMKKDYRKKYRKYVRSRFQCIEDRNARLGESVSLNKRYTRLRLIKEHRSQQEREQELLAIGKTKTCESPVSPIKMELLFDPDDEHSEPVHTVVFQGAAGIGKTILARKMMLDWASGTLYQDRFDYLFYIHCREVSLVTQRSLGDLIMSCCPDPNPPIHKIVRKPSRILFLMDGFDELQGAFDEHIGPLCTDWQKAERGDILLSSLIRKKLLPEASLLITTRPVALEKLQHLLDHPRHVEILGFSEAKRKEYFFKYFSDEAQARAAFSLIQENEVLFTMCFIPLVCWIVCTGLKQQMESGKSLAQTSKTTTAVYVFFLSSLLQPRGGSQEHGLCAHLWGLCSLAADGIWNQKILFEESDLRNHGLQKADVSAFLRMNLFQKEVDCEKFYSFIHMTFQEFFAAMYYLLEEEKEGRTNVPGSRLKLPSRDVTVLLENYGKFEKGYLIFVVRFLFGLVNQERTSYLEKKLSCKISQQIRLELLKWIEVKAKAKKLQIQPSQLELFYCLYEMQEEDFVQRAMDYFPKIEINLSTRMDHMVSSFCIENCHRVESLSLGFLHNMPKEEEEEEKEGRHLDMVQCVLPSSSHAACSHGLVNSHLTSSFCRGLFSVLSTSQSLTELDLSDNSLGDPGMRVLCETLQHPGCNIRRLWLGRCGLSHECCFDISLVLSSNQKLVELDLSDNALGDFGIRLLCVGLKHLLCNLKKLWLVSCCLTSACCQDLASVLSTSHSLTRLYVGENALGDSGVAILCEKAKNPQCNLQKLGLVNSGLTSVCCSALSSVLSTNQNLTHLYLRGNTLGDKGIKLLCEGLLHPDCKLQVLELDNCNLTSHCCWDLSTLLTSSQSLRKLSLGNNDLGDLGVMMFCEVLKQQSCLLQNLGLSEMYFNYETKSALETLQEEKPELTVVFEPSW

[6] = system: LPS-induced myocardial injury and cardiac dysfunction; conditions: mouse model; study utilized the synthetic ketone ester; cited from earlier work

time to ketosis ([2]; 10 g with palatability agent by oral drink): ≤ 45 min
blood ketone levels after administration ([2]; 10 g with palatability agent by oral drink, within 45 minutes, rise from 0.2 and 0.6 mmol/L respectively, different test subjects): 1.8 mmol/L and 1.9 mmol/L
blood ketone levels after administration ([2]; oral bolus of 15 grams, rise from 0.1 mmol/L (absence of ketosis)): 2.7 mmol/L
increase in ketone level (CKM) [3]: 1.5 mmol/L
Structure (SMILES): C[C@@H](O)CC(=O)O [D-BHB, D-β-HydroxyButyric Acid]
glucose spike after carbohydrate ingestion [1]: the rapid glucose spike depicted in the unsupplemented ingestion is not found
quantity of deep sleep [3]: enhance the quantity of deep sleep obtained

Structure (SMILES): C[C@@H](O)CCOC(=O)C[C@@H](C)O [ketone ester, (R)-3-hydroxybutyl (R)-3-hydroxybutyrate]
ketone level response [4]: higher ketone level response

Structure (SMILES): CC(O)CC(=O)O (stereo not drawn) [β-OHB, β-Hydroxybutyrate]
effect on NLRP3 inflammasome in macrophages [5]: inhibits the NLRP3 inflammasome
effect on LPS-induced myocardial injury and cardiac dysfunction [6]: prevent LPS-induced myocardial injury and cardiac dysfunction
